Experimental data taken from publication PMC5325331, “A steroid like phytochemical Antcin M is an anti-aging reagent that eliminates hyperglycemia-accelerated premature senescence in dermal fibroblasts by direct activation of Nrf2 and SIRT-1” (Oncotarget, 2016).
Read-outs that look alike come from different tables or passages of the source.

What was measured:
HNDFs [1] = test: Cytotoxicity of antcins against HNDFs (MTT assay); type: cell-based, human; settings: for IC50: MTT assay, read-out: IC50 (50% inhibitory concentration) against HNDFs; for cytotoxicity to HNDFs up to the high treatment concentration: up to 20 μM, 72 h, MTT
Procedure: Figure 2 Effects of antcins on HG-induced senescence in HNDFs A. Type of antcins subjected to screen for potential anti-aging agents for skin aging. Names and chemical structures of the antcins are shown in the left and centrer column, respectively. The cytotoxic effects of antcins against HNDFs. Briefly, HNDFs were incubated with increasing concentrations (1, 5, 10 and 20 μM) of antcins including antcin A, antcin B, antcin C, antcin H, anticn K and antcin M for 72 h and the cell viability was determined by MTT assay. The 50% inhibitory concentrations (IC50) of each compound against HNDFs are shown in right column. B. Cells were incubated with antcin A (10 μM), antcin H (10 μM) and antcin M (10 μM) in the presence of HG (30 mM) for 72 h. Cellular senescence was determined by SA-β-gal activity. […] C. HNDFs were incubated with antcin A (10 μM), antcin H (10 μM) and antcin M (10 μM) in the presence of HG (30 mM) for 72 h. Senescence-associated marker proteins such as p16^INK4A, p21^CIP1 and SMP30 were determined by western blot analysis. D. To determine the effect of antcins on cell proliferation efficacy, HNDFs 5 × 10^4 cells/well in 6-well plates were incubated with antcins in the presence of HG (30 mM) for 72 h. Number of viable cells were quantified by the tryphan blue exclusion method. Results are expressed as mean ± S.E.M of three indipendent expriments. Statistical significance was et at ^ФP < 0.05 compared to NG vs HG and *P < 0.05 compared to HG vs. samples.
(§1) Human normal dermal fibroblasts (HNDFs, CCD966SK) and human umbilical vein endothelial cells (HUVECs) were obtained from the Bioresource Collection and Research Center (BCRC), Hsinchu, Taiwan. HNDFs were grown in MEM containing 10% FBS, 2 mM L-glutamine, 100 U/mL penicillin and streptomycin at 37°C in a fully humidified atmosphere of 5% CO2. Likewise, HUVECs were grown in M-199 medium supplemented with ECGS, heparin, 10% FBS and 100 U/mL penicillin and streptomycin at 37°C in a fully humidified atmosphere of 5% CO2. High-glucose treatment was performed by treating cells with 15 or 30 mM D-glucose (HG) for 24-72 h.
Cell viability was assessed by MTT colorimetric assay. Briefly, HNDFs (2 × 10^4 cells/well) or HUVECs (5 × 10^4 cells/well) were seeded in a 24-well culture plate. After treatment with HG (15 and 30 mM) in the presence or absence of samples for 24-72 h, culture media was withdrawn and incubated with MTT (1 mg/mL) in fresh medium for 2 h. The MTT formazan crystals were dissolved in 400 μL of DMSO and the samples were measured at 570 nm […] using an ELISA microplate reader (Bio-Tek Instruments, Winooski, VT). The percentage of cell viability (%) was calculated as (A570 of treated cells/A570 of untreated cells) × 100.

HNDFs [2] = test: SA-β-gal senescence assay in HG-induced HNDFs; type: cell-based, human; settings: for SA-β-gal positive cells: 10 μM with HG (30 mM) for 72 h, HG alone 9.59-fold (Figure 2B); for HG-induced SA-β-gal activity in kinase inhibitor-treated cells: inhibitor 30 μM with HG (30 mM) for 72 h (Figure 4H)
Procedure: as §1
Senescence-associated β-galactosidase (SA-β-gal) activity was determined in formaldehyde-fixed histochemical staining kit according to the manufacturer's instructions (Cell Signaling Technology, Danvers, […]). Briefly, cells were grown in 6-well plates at a density of 5 × 10^4 cells/well, and incubated with HG or test samples for 48 h (HUVECs) or 72 h (HNDFs). After incubation, cells were stained with SA-β-gal staining solution at pH 6.0 overnight and then the development of blue staining was observed and photographed under a bright-field microscope (Motic Electric Group, Xiamen, P.R. China).

HNDFs [3] = test: Cell proliferation, trypan blue exclusion assay in HG-induced HNDFs; type: cell-based, human; settings: with HG (30 mM) for 72 h (Figure 2D)
Procedure: Cell proliferation was evaluated using trypan blue exclusion assay as described previously with minor modification. Cells were plated into 6-well plates at a density of 5 × 10^4 cells/well. After incubation overnight, cells were treated with test samples in the presence or absence of HG for 24-72 h. Cells exposed to 0.2% Trypan blue were then counted in a hemocytometer, and cells stained with Trypan blue were excluded. Percentage of viable cells was calculated based on the ratio of viable cells to total cell population in each well. The proliferation rate was calculated based on the number of viable cells in HG or sample-treated groups versus the NG-treated group.

[4] = tested on: p16INK4A, p21CIP1 and SMP30; test: Western blot of senescence-associated marker proteins in HG-induced HNDFs; type: cell-based, human; settings: 10 μM with HG (30 mM) for 72 h, immunoblotting
Procedure: Cells were lysed by either RIPA lysis buffer or nuclear and cytoplasmic extraction reagents (Thermo Fisher Scientific). Protein concentrations were determined by Bio-Rad protein assay reagent (Bio-Rad Laboratories, Hercules, CA). Equal amounts of protein samples (60 μg) were separated by 7-12% SDS-PAGE and the separated proteins were transferred onto polyvinylidene […] (PVDC) membrane overnight. The transferred protein membranes were blocked with 5% non-fat dried milk for 30 min, followed by incubation with specific primary antibodies overnight, and either horseradish peroxidase-conjugated goat anti-rabbit or anti-mouse antibodies for 2 h. The blots were detected using VL Chemi-Smart 3000 (Viogene Biotek, Sunnyvale, CA) with the enhanced chemiluminescence (ECL) western blotting reagent (Millipore, Billerica, MA).

HNDFs [5] = test: Cell-cycle analysis by flow cytometry (PI) in HG-induced HNDFs; type: cell-based, human; settings: NAC 100 μM with HG (30 mM) for 72 h
Procedure: HNDFs at a density of 5 × 10^5 cells in 10 cm dishes were treated with ANM or NAC in the presence or absence of HG for 72 h. Cells were collected, washed with PBS and fixed in 95% cold-ethanol, and kept at −20°C overnight. The cell pellet was then washed again with PBS and centrifuged at 1500 × g for 5 min. The pellet was re-suspended in 1 mL PI/Triton X-100 (20 μg/mL PI, 0.1% Triton X-100 and 0.2 mg/mL RNAse) and incubated on ice for 30 min. The total cellular DNA content was analyzed with a flow cytometer (Beckman Coulter FC500). Data were acquired and analyzed using CXP software (Beckman Coulter).

HNDFs [6] = test: Flow cytometric detection of intracellular ROS (DCFH2-DA) in HNDFs; type: cell-based, human
Procedure: Intracellular ROS accumulation was determined using the dye DCFH2-DA following a procedure described earlier. Briefly, HNDFs (1 × 10^5 cells/well) were seeded in 6-well plates and incubated with HG in the presence or absence of test samples for 24 h. At the end of the incubation, the culture supernatant was removed and cells were washed twice with PBS. DCFH2-DA (10 μM) was mixed with 500 μL MEM and added to the culture plate. After incubation for 30 minutes, cells were collected by trypsin and the fluorescence shift was quantified using a flow cytometer (Beckman Coulter). Data were acquired and analyzed using CXP software (Beckman Coulter).

[7] = Cell-free DPPH free-radical scavenging assay
Procedure: Therefore, next to determine whether ANM acts directly as a free-radical scavenger, we performed a cell-free DPPH free-radical scavenging assay.
Figure 5 Antcin M activates Nrf2-dependent anti-oxidant defense in HNDFs A. To determine the free-radical scavenging effect of ANM, cell-free DPPH assay was performed. […] Results expressed as mean ± S.E.M of three indipendent expriments.

[8] = tested on: Nrf2 transcriptional activity (ARE promoter); test: ARE luciferase reporter assay in HNDFs; type: cell-based, human; settings: for ARE luciferase activity: 6 h; for ANM-induced ARE luciferase activity after inhibitor pretreatment: inhibitor pre-incubation 2 h, then ANM 6 h in the presence of HG
Procedure: ARE promoter activity was measured using a dual-luciferase reporter assay system (Promega, Madison, WI). […] Cells were then transfected with ARE plasmid (Qiagen, Hilden, Germany) using Lipofectamine 2000 (Invitrogen) and incubated for 36 h. […] The cell lysate was prepared and incubated with luciferase agents and the relative luminescence intensity was quantified using a spectrophotometer (Hidex Oy, Turku, Finland).

[9] = tested on: C. elegans wild type Bristol N2; test: Life span assay in C. elegans; type: in vivo, Caenorhabditis elegans; settings: ANM 10 μM or RES 438 μM alone, compared to the control
Procedure: The wild type Bristol N2 strain was used in this study. C. elegans and Escherichia coli OP50 strain were obtained from the Caenorhabditis Genetic Center, University of Minnesota (Minneapolis-St. Paul, MN). Worms were maintained at 20°C on nematode growth medium (NGM). Hatched worms (L1-stage larvae) were transferred to fresh agar plates and cultured with E. coli OP50 as a food source until they reached the L4 larvae stage. Synchronization of worm cultures was achieved by hypochlorite treatment of gravid hermaphrodites. […] Control worms were treated with 0.1% DMSO. All worms were kept 20°C to develop adulthood. Surviving and dead animals were counted daily (starting from the first day of adulthood) until all worms had died. […] Worms suffering from internal hatch (a defect in egg-laying) and those that crawled off the NGM plate were not included in the life-span assay. During the reproductive period, adult worms were transferred to fresh NGM plates every and then every other day thereafter. Life span assay result was obtained from three independent assays.

HUVECs = test: Cell viability of HUVECs (MTT assay); type: cell-based, human; settings: ANM 10 μM or RES 5 μM for 48 h
Procedure: Human normal dermal fibroblasts ([…]) and human umbilical vein endothelial cells (HUVECs) were obtained from the Bioresource Collection and Research Center (BCRC), Hsinchu, Taiwan. […] Likewise, HUVECs were grown in M-199 medium supplemented with ECGS, heparin, 10% FBS and 100 U/mL penicillin and streptomycin at 37°C in a fully humidified atmosphere of 5% CO2. High-glucose treatment was performed by treating cells with 15 or 30 mM D-glucose (HG) for 24-72 h. […] Cell viability was assessed by MTT colorimetric assay. […] After treatment with HG (15 and 30 mM) in the presence or absence of samples for 24-72 h, culture media was withdrawn and incubated with MTT (1 mg/mL) in fresh medium for 2 h. The MTT formazan crystals were dissolved in 400 μL of DMSO and the samples were measured at 570 nm […] using an ELISA microplate reader (Bio-Tek Instruments, Winooski, VT). The percentage of cell viability (%) was calculated as (A570 of treated cells/A570 of untreated cells) × 100.

[10] = Homo sapiens, 72 h, 1, 5, 10 and 20 μM for 72 h

For `C=C(CC[C@@H](C)[C@H]1CC[C@H]2C3=C(C(=O)C[C@]12C)[C@@]1(C)CCC(=O)[C@@H](C)[C@@H]1CC3)C(C)C(=O)O` (some centres unmarked) [ANA, antcin A], the IC50 (HNDFs [1]; [10]) was > 50 µM, the SA-β-gal positive cells (HNDFs [2]) was 7.46 fold and the “cell proliferation compared to the HG treatment group” value (HNDFs [3]) was “partially increased cell proliferation”. For the same compound, the “HG-induced upregulation of p16INK4A and p21CIP1 proteins” value [4] was “moderate inhibition”.
For `CC(=O)N[C@@H](CS)C(=O)O` [NAC, N-acetylcysteine, reference compound], the HG-induced cell-cycle arrest (HNDFs [5]) was “partially blocked”, the “HG-induced ROS generation” value (HNDFs [6]; ANM 10 μM or NAC 100 μM with HG (30 mM) for 24 h, HG alone 426.2%) was 176.58% and the “ROS generation, treatment alone” value (HNDFs [6]; ANM 10 μM or NAC 100 μM without HG, 24 h) was “did not significantly increase ROS generation”. The “free-radical scavenging in the cell-free system” value [7] was “potent free-radical scavenging effect”, the ARE luciferase activity ([8]; ANM 10 μM or NAC 100 μM alone, control 1-fold) was 6.3 fold and the ARE luciferase activity ([8]; co-treated with HG (30 mM), ANM 10 μM or NAC 100 μM, HG alone 2.5-fold) was 8.2 fold.
In the case of `C=C(CCC(C)C1CCC2C3=C(C(=O)C(O)C21C)C1(C)CCC(O)C(C)C1CC3=O)C(C)C(=O)O` (centres unmarked) [ANH, antcin H], the IC50 (HNDFs [1]; 1, 5, 10 and 20 μM for 72 h) is reported as > 50 µM, the “cytotoxicity to HNDFs up to the high treatment concentration” value (HNDFs [1]) is reported as “did not show significant cytotoxicity” and the SA-β-gal positive cells (HNDFs [2]) is reported as 8.13 fold. For the same compound, the “cell proliferation compared to the HG treatment group” value (HNDFs [3]) was “partially increased cell proliferation” and the “HG-induced upregulation of p16INK4A and p21CIP1 proteins” value [4] was “moderate inhibition”.
In the case of `C=C(CC[C@@H](C)[C@H]1CC[C@H]2C3=C(C(=O)C[C@]12C)[C@@]1(C)CCC(=O)[C@@H](C)[C@@H]1CC3=O)[C@H](C)C(=O)O` [ANB, antcin B], the IC50 (HNDFs [1]; [10]) is reported as 7.11 µM.
With `C=C(CC[C@@H](C)[C@H]1CC[C@H]2C3=C(C(=O)C[C@]12C)[C@@]1(C)CC[C@@H](O)[C@](C)(O)[C@@H]1C[C@@H]3O)C(C)C(=O)O` (some centres unmarked) [ANK, antcin K] the IC50 (HNDFs [1]; [10]) was 2.89 µM.
In the case of `Oc1c2ccccc2c2c3c(cccc13)N=N2` [SP600125, reference compound], the “HG-induced SA-β-gal activity in kinase inhibitor-treated cells” value (HNDFs [2]) is reported as “barely observed” and the “ANM-induced ARE luciferase activity after inhibitor pretreatment” value [8] is reported as “partially or barely inhibited”.
In the case of `C[S+]([O-])c1ccc(-c2nc(-c3ccncc3)c(-c3ccc(F)cc3)[nH]2)cc1` (centres unmarked) [SB203580, reference compound], the “HG-induced SA-β-gal activity in kinase inhibitor-treated cells” value (HNDFs [2]) is reported as “barely observed” and the “ANM-induced ARE luciferase activity after inhibitor pretreatment” value [8] is reported as “partially or barely inhibited”.
For `O=c1cc(N2CCOCC2)oc2c(-c3ccccc3)cccc12` [LY294002, reference compound], the “HG-induced SA-β-gal activity in kinase inhibitor-treated cells” value (HNDFs [2]) was “reduced” and the “ANM-induced ARE luciferase activity after inhibitor pretreatment” value [8] was “effectively suppressed”.
With `Oc1ccc(/C=C/c2cc(O)cc(O)c2)cc1` [RES, resveratrol, reference compound] the “life span of C. elegans under normal condition” value [9] was “highly comparable” and the “cell viability of HUVECs, treatment alone” value (HUVECs) was “did not affect cell viability”.
With `COc1cccc(-c2cc(=O)c3ccccc3o2)c1N` [PD98059, reference compound] the “HG-induced SA-β-gal activity in kinase inhibitor-treated cells” value (HNDFs [2]) was “did not affect” and the “ANM-induced ARE luciferase activity after inhibitor pretreatment” value [8] was “effectively suppressed”.
With `C=C(CCC(C)C1CCC2C3=C(C(=O)CC21C)C1(C)CCC(=O)C(C)C1CC3O)C(C)C(=O)O` (centres unmarked) [ANC, antcin C] the IC50 (HNDFs [1]; [10]) was > 50 µM and the “cytotoxicity to HNDFs up to the high treatment concentration” value (HNDFs [1]) was “did not show significant cytotoxicity”.
